According to patent US20120164671A1, “METHODS FOR MONITORING IMMUNOSUPPRESSANT DRUG LEVELS, RENAL FUNCTION, AND HEPATIC FUNCTION USING SMALL VOLUME SAMPLES” (priority 2008, published 2012):
Where two headings read alike, the source gives them in different places.

Conditions: human, in vivo
Experimental: The patient collected an approximately 500 μL blood sample from a fingerstick. The small volume blood sample was collected as described above, using a K2-EDTA collection tube, and timely transported to the testing facility. At the testing facility, the whole blood sample in K2-EDTA was split into 3 fractions: (1) 50 μL for immunosuppressant drug monitoring using tandem mass spectrometry, (2) 50 μL for complete blood count by flow cytometry, and (3) the remainder for various other tests.
The first fraction was prepared by adding 200 μL of ZnSO4 (zinc sulfate) to the fraction, and the cells were lysed by vortexing for 10 seconds. Then 500 μL of a solution containing acetonitrile and internal reference standards (ascomycin: 2 nanograms (ng)/ml, along with cyclosporin D 25 ng/ml) was added, and the sample was mixed by vortexing for 20 seconds. The tubes were then spun down for 4 minutes at 14,000×g (14,000 times gravity). The supernatant was decanted into vials for assay by mass spectrometry.
The patient collected an approximately 500 μL blood sample from a fingerstick. The small volume blood sample was collected using a K2-EDTA collection tube, transported to the testing facility, and divided into three fractions as described above. Each fraction was prepared as described above for the adult patient, and the same immunosuppressant drug monitoring of immunosuppressants, complete blood count, assays for renal function, and assays for hepatic function were performed.

## CO[C@H]1C[C@@H]2CC[C@@H](C)[C@@](O)(O2)C(=O)C(=O)N2CCCC[C@H]2C(=O)O[C@H]([C@H](C)C[C@@H]2CC[C@@H](O)[C@H](OC)C2)CC(=O)[C@H](C)/C=C(\C)[C@@H](O)[C@@H](OC)C(=O)[C@H](C)C[C@H](C)/C=C/C=C/C=C/1C [Rapamycin]
female
  Result (blood level): 3.10 µg/L
male
  Result (blood level): 5.10 µg/L

## C=CC[C@@H]1/C=C(\C)C[C@H](C)C[C@H](OC)[C@H]2O[C@@](O)(C(=O)C(=O)N3CCCC[C@H]3C(=O)O[C@H](/C(C)=C/[C@@H]3CC[C@@H](O)[C@H](OC)C3)[C@H](C)[C@@H](O)CC1=O)[C@H](C)C[C@@H]2OC [Tacrolimus]
female
  Result (blood level): 10.80 µg/L
male
  Result (blood level): 6.80 µg/L
